Source: patent USRE50799E1, “JAK1 selective inhibitors and uses thereof” (Hangzhou HighlightII Pharmaceutical Co., Ltd, priority 2016, dated 2026)
Values belong to the molecule of their own block, whether it stands above or below them.

Key:
[1] = test system: TPO induced STAT3 phosphorylation; test: Human whole blood p-STAT3 assay, TPO stimulation; type: cell-based; conditions: for IC50: 0.25 h, TPO 50 ng/ml 15 min, pSTAT3 ELISA, read-out: TPO (range of IC50, induced STAT3 phosphorylation)
Procedure: (§1) Example B2: Human Whole Blood p-STAT3 Assay
(§2) 1. Whole blood samples from human donors
3. Thrombopoietin (TPO; R&D systems; Cat #288-TP)
(§3) 5. ELISA kit for pSTAT3 (Invitrogen; Cat # KH00481)
(§4) 1. 150 μl heparinized blood sample/tube.
(§5) 2. Compounds at various concentrations is added to the blood, incubate for 10 min at RT (10 doses, 2 replicates for each compound).
(§6) 3. Add IL-6 (final concentration: 100 ng/ml) or TPO (final conc: 50 ng/ml) to the blood for 15 min.
(§7) 4. After the stimulation, add 0.6 mL RBC lysis buffer (Qiagen 79217) and mix and rock for 1-2 minutes at room temperature before centrifugation to remove lyzed RBCs. This step may be repeated once if RBCs are not lyzed completely. Harvest the WBCs.
(§8) 5. Add 200 μl cell lysis buffer, ice 30 min.
(§9) 7. Transfer the supernatant to a new tube as cell lysate.
(§10) 8. Run ELISA procedure according to the product instruction of ELIA kit.

Jak2 = target: T1, Jak2 (Homo sapiens, UniProt O60674); test: Jak2 biochemical assay (33P-ATP filter-binding, Reaction Biology Corp); conditions: biochemical kinase assay, read-out: Jak2 (range of IC50)
T1 construct: Reaction Biology Corp (performed the assay)
Procedure: (§11) Example B1: Jak1, 2, 3, Tyk2 Biochemical Assays
(§12) Assays were performed by Reaction Biology Corp, Malvern, Pa. The procedure is briefly described below.
(§13) Base Reaction buffer; 20 mM Hepes (pH 7.5), 10 mM MgCl2, 1 mM EGTA, 0.02% Brij35, 0.02 mg/ml BSA, 0.1 mM Na3VO4, 2 mM DTT, 1% DMSO. Required cofactors are added individually to each kinase reaction
(§14) 1. Prepare indicated substrate in freshly prepared Base Reaction Buffer
(§15) 2. Deliver any required cofactors to the substrate solution above
(§16) 3. Deliver indicated kinase into the substrate solution and gently mix
(§17) 4. Deliver compounds in DMSO into the kinase reaction mixture by Acoustic technology (Echo550; nanoliter range), incubate for 20 minutes at room temperature
(§18) 5. Deliver ^33P-ATP (specific activity 10 μCi/μl) into the reaction mixture to initiate the reaction.
(§19) 6. Incubate kinase reaction for 2 hours at room temperature
(§20) 7. Reactions are spotted onto P81 ion exchange paper
(§21) 8. Detect kinase activity by filter-binding method.

Jak1 = target: T2, Jak1 (Homo sapiens, UniProt P23458); test: Jak1 biochemical assay (33P-ATP filter-binding, Reaction Biology Corp); conditions: for Jak1 inhibition, statement in words: biochemical assays, Jak1 versus Jak2; for IC50: biochemical kinase assay, 33P-ATP, filter-binding, read-out: Jak1 (range of IC50)
T2 construct: Reaction Biology Corp (performed the assay)
Procedure: as §11, §12, §13, §14, §15, §16, §17, §18, §19, §20, §21

[2] = test system: IL-6 induced STAT3 phosphorylation; test: Human whole blood p-STAT3 assay, IL-6 stimulation; type: cell-based; conditions: for IC50: 0.25 h, IL-6 100 ng/ml 15 min, pSTAT3 ELISA, read-out: IL-6 (range of IC50, induced STAT3 phosphorylation); for Inhibition of IL-6 induced STAT3 phosphorylation, statement in words: versus TPO induced
Procedure: as §1, §2
2. IL-6 (R&D systems; Cat #206-IL)
as §3, §4, §5, §6, §7, §8, §9, §10

T2 sequence (P23458 whole entry): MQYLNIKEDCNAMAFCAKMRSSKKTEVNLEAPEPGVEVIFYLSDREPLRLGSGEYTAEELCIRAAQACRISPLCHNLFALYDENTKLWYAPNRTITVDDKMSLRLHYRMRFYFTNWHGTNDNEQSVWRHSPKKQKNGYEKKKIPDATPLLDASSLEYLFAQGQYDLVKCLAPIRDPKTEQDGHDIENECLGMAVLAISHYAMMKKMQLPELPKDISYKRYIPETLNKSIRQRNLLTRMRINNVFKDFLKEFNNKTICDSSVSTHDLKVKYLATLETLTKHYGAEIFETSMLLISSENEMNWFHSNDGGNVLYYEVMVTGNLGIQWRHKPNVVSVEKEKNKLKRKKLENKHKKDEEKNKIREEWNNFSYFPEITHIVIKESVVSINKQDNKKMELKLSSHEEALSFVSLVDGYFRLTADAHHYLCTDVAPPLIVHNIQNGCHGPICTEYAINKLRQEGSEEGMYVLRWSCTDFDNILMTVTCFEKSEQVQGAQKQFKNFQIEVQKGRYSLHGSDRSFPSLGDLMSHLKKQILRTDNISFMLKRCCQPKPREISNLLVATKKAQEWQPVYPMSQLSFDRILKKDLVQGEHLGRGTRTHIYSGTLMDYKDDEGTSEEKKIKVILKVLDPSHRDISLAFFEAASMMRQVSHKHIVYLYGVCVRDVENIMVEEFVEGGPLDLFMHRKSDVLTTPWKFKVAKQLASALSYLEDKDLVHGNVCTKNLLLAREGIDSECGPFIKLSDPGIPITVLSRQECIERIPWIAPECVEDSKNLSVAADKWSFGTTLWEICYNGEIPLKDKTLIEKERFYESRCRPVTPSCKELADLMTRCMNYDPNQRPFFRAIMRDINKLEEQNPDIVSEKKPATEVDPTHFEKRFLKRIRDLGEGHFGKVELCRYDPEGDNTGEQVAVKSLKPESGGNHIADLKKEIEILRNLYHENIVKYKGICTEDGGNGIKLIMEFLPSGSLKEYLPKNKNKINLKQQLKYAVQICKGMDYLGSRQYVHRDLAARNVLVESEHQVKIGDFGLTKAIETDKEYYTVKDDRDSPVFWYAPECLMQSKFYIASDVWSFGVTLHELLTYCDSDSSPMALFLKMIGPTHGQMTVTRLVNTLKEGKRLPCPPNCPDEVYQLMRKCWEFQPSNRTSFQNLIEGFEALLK
T1 sequence (O60674 whole entry): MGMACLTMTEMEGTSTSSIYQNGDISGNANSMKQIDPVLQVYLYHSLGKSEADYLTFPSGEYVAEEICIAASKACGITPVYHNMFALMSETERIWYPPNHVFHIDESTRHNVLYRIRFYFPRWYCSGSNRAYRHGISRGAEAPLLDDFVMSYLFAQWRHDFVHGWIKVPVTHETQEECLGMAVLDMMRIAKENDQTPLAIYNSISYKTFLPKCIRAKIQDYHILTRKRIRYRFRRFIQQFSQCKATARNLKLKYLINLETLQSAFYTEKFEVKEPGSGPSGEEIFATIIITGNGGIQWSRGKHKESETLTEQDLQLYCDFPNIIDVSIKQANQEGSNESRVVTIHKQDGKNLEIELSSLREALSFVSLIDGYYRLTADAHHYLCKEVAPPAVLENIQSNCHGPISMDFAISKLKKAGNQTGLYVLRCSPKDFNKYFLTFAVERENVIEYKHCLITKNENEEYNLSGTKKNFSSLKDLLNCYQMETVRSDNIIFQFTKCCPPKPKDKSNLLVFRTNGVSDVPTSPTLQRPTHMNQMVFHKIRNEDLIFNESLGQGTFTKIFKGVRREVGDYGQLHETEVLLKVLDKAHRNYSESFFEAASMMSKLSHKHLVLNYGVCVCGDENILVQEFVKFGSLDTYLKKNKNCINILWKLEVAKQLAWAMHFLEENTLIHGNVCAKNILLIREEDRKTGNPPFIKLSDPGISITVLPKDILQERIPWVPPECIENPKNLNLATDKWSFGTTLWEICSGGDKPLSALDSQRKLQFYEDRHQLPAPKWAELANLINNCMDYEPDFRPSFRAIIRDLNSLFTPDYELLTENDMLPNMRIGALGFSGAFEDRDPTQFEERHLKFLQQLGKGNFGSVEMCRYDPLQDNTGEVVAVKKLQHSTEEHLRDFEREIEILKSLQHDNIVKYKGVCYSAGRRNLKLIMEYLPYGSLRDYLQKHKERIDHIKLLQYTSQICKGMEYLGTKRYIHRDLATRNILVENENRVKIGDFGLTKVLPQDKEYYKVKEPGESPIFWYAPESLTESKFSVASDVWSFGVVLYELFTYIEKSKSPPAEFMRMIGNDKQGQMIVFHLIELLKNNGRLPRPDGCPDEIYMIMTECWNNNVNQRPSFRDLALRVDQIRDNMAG

SMILES: N#CC[C@H]1CC[C@H](n2c(CO)nc3cnc4ccoc4c32)CO1 [Example 7, 2-[(2R,5S)-5-[2-(Hydroxymethyl)furo[3,2-b]imidazo[4,5-d]pyridin-1-yl]tetrahydropyran-2-yl] acetonitrile]
IC50 [1]: > 100000 nM
IC50 (Jak2): 100 to 1000 nM
Jak1 inhibition, statement in words (Jak1): potent and selective Jak1 inhibitors
IC50 (Jak1): < 10 nM
IC50 [2]: < 5000 nM
Inhibition of IL-6 induced STAT3 phosphorylation, statement in words [2]: selective inhibition of IL-6 induced STAT3 phosphorylation, but not TPO induced STAT3 phosphorylation

SMILES: N#CC[C@@H]1CC[C@H](n2c(CO)nc3cnc4ccoc4c32)CO1 [Example 8, 2-[(2S,5S)-5-[2-(Hydroxymethyl)furo[3,2-b]imidazo[4,5-d]pyridin-1-yl]tetrahydropyran-2-yl] acetonitrile]
IC50 (Jak2): > 1000 nM
IC50 (Jak1): 100 to 1000 nM

SMILES: C[C@@H](O)c1nc2cnc3ccoc3c2n1C1CCN(C(=O)NCC(F)(F)F)CC1 [Example 6, (R)-4-[2-(1-Hydroxyethyl)-1H-furo[3,2-b]imidazo[4,5-d]pyridin-1-yl]-N-(2,2,2-trifluoroethyl)piperidine-1-carboxamide]
IC50 (Jak2): > 1000 nM
IC50 (Jak1): > 1000 nM

SMILES: C[C@@H](O)c1nc2cnc3ccoc3c2n1C1CCN(C(=O)NCC(F)(F)F)C1 (stereo partly drawn) [Example 5, 3-[2-[(R)-1-Hydroxyethyl]-1H-furo[3,2-b]imidazo[4,5-d]pyridin-1-yl]-N-(2,2,2-trifluoroethyl)pyrrolidine-1-carboxamide]
IC50 (Jak2): > 1000 nM
IC50 (Jak1): > 1000 nM

SMILES: Cc1nc2cnc3ccoc3c2n1[C@H]1CC[C@H](CC#N)OC1 [Example 11, 2-[(2R,5S)-5-[2-Methylfuro [3,2-b]imidazo [4,5-d]pyridin-1-yl]tetrahydropyran-2-yl] acetonitrile]
Activity in the TPO induced STAT3 phosphorylation assay, statement in words [1]: some activity
IC50 [1]: 20000 to 100000 nM
IC50 (Jak2): 10 to 100 nM
IC50 (Jak1): < 10 nM
IC50 [2]: < 5000 nM

SMILES: CCc1nc2cnc3ccoc3c2n1[C@H]1CC[C@H](CC#N)OC1 [Example 9, 2-[(2R,5S)-5-[2-Ethylfuro[3,2-b]imidazo[4,5-d]pyridin-1-yl]tetrahydropyran-2-yl] acetonitrile]
IC50 (Jak2): 100 to 1000 nM
Jak1 inhibition, statement in words (Jak1): potent and selective Jak1 inhibitors
IC50 (Jak1): < 10 nM

More lines, main results first:

IC50 [1]: > 100000 nM
IC50 (Jak2): 100 to 1000 nM
Jak1 inhibition, statement in words (Jak1): potent and selective Jak1 inhibitors
IC50 (Jak1): < 10 nM
IC50 [2]: < 5000 nM
SMILES: C[C@@H](O)c1nc2cnc3ccoc3c2n1[C@H]1CC[C@H](CC#N)CC1 [Example 3, 2-[trans-4-[2-[(R)-1-Hydroxyethyl]furo[3,2-b]imidazo[4,5-d]pyridin-1-yl]cyclohexyl] acetonitrile]
Inhibition of IL-6 induced STAT3 phosphorylation, statement in words [2]: selective inhibition of IL-6 induced STAT3 phosphorylation, but not TPO induced STAT3 phosphorylation

IC50 [1]: > 100000 nM
IC50 (Jak2): 100 to 1000 nM
Jak1 inhibition, statement in words (Jak1): potent and selective Jak1 inhibitors
IC50 (Jak1): < 10 nM
IC50 [2]: < 5000 nM
SMILES: C[C@@H](O)c1nc2cnc3ccoc3c2n1[C@H]1CC[C@H](CC#N)OC1 [Example 4, 2-[(2R,5S)-5-[2-[(R)-1-Hydroxyethyl]furo[3,2-b]imidazo[4,5-d]pyridin-1-yl]tetrahydropyran-2-yl] acetonitrile]
Inhibition of IL-6 induced STAT3 phosphorylation, statement in words [2]: selective inhibition of IL-6 induced STAT3 phosphorylation, but not TPO induced STAT3 phosphorylation

IC50 (Jak1): 100 to 1000 nM
SMILES: C[C@@H](O)c1nc2cnc3ccoc3c2n1[C@H]1CC[C@H](C#N)CC1 [Example 1, trans-4-[2-[(R)-1-Hydroxyethyl]-1H-furo [3,2-b]imidazo [4,5-d]pyridin-1-yl] cyclohexanecarbonitrile]

IC50 (Jak1): 100 to 1000 nM
SMILES: N#C[C@H]1CC[C@H](n2c(CO)nc3cnc4ccoc4c32)CC1 [Example 2, trans-4-[2-(Hydroxymethyl)furo[3,2-b]imidazo[4,5-d]pyridin-1-yl]cyclohexanecarbonitrile]
